Laboratory results: ChEMBL document CHEMBL4000253 (Bioorg Med Chem, 2017)
Activity calls are given as the source filed them. No cut-off for these calls is given here.

Assays:
Mushroom tyrosinase [1] = biological target: T1, Mushroom tyrosinase (Agaricus bisporus, UniProt O42713+Q00024+C7FF04+C7FF05); experiment: Inhibition of mushroom tyrosinase using L-DOPA as substrate assessed as decrease in dopachrome formation preincubated for 10 mins followed by substrate addition by spectrophotometric method
[2] = biological target: T2, Tyrosinase (Mus musculus) (UniProt P11344); experiment: Inhibition of tyrosinase in alpha-MSH-stimulated mouse B16F10 cells up to 50 uM preincubated for 48 hrs followed by L-DOPA addition
T2 sequence (whole entry): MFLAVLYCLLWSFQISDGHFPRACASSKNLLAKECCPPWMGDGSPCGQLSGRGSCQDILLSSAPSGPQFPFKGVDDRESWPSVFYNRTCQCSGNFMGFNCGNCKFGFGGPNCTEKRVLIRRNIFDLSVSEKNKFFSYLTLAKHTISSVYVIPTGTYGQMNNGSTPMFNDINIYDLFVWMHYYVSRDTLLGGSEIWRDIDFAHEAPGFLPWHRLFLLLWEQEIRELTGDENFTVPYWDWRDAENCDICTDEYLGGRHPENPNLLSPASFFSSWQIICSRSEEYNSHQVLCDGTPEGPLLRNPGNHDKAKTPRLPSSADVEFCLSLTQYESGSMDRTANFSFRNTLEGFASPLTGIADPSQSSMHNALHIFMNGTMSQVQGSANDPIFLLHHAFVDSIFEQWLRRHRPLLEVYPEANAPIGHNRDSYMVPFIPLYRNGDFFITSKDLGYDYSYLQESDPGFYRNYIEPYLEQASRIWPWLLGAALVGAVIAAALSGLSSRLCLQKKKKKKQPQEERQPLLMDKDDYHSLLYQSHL

[3] = biological target: T2, Tyrosinase (Mus musculus); experiment: Inhibition of tyrosinase in alpha-MSH-stimulated mouse B16F10 cells assessed as decrease in melanin content up to 50 uM after 48 hrs
Mushroom tyrosinase [4] = biological target: T1, Mushroom tyrosinase; experiment: Competitive inhibition of mushroom tyrosinase using 0.3 to 1 mM L-DOPA as substrate assessed as decrease in dopachrome formation preincubated for 10 mins followed by substrate addition by Lineweaver-Burk plot analysis
[5] = biological target: T3, Mushroom tyrosinase (Agaricus bisporus) (UniProt O42713+Q00024+C7FF04+C7FF05); experiment: Potency index, ratio of kojic acid IC50 to test compound IC50 for mushroom tyrosinase
B16-F10 [6] = experiment: Cytotoxicity against mouse B16F10 cells assessed as decrease in cell viability at >50 uM after 48 hrs by MTT assay; type: cell-based; settings: b16-f10, 48 h
B16-F10 [7] = experiment: Cytotoxicity against mouse B16F10 cells assessed as decrease in cell viability at <50 uM after 48 hrs by MTT assay; type: cell-based; settings: b16-f10, 48 h
[8] = biological target: T2, Tyrosinase (Mus musculus); experiment: Inhibition of tyrosinase in alpha-MSH-stimulated mouse B16F10 cells assessed as residual activity at 50 uM preincubated for 48 hrs followed by L-DOPA addition relative to control
[9] = biological target: T2, Tyrosinase (Mus musculus); experiment: Inhibition of tyrosinase in alpha-MSH-stimulated mouse B16F10 cells assessed as residual activity at 10 uM preincubated for 48 hrs followed by L-DOPA addition relative to control
[10] = biological target: T2, Tyrosinase (Mus musculus); experiment: Inhibition of tyrosinase in alpha-MSH-stimulated mouse B16F10 cells preincubated for 48 hrs followed by L-DOPA addition
[11] = biological target: T3, Mushroom tyrosinase (Agaricus bisporus); experiment: Uncompetitive inhibition of mushroom tyrosinase using 0.3 to 1 mM L-DOPA as substrate assessed as decrease in dopachrome formation preincubated for 10 mins followed by substrate addition by Lineweaver-Burk plot analysis
[12] = biological target: T2, Tyrosinase (Mus musculus); experiment: Inhibition of tyrosinase in alpha-MSH-stimulated mouse B16F10 cells assessed as decrease in melanin content at 10 to 50 uM after 48 hrs
[13] = biological target: T2, Tyrosinase (Mus musculus); experiment: Inhibition of tyrosinase in alpha-MSH-stimulated mouse B16F10 cells assessed as residual activity at 25 uM preincubated for 48 hrs followed by L-DOPA addition relative to control
[14] = biological target: T2, Tyrosinase (Mus musculus); experiment: Inhibition of tyrosinase in alpha-MSH-stimulated mouse B16F10 cells assessed as decrease in melanin content after 48 hrs
[15] = biological target: T2, Tyrosinase (Mus musculus); experiment: Inhibition of tyrosinase in alpha-MSH-stimulated mouse B16F10 cells at 10 uM preincubated for 48 hrs followed by L-DOPA addition relative to control
[16] = biological target: T2, Tyrosinase (Mus musculus); experiment: Inhibition of tyrosinase in alpha-MSH-stimulated mouse B16F10 cells at 25 uM preincubated for 48 hrs followed by L-DOPA addition relative to control
[17] = biological target: T2, Tyrosinase (Mus musculus); experiment: Inhibition of tyrosinase in alpha-MSH-stimulated mouse B16F10 cells at 10 to 50 uM preincubated for 48 hrs followed by L-DOPA addition and subsequent incubation in dark measured after 1 hr by zymographic method

`O=c1oc2cc(O)ccc2cc1-c1cccs1` gave an IC50 (Mushroom tyrosinase [1]) greater than 1000 µM.
For `O=c1oc2cc(O)cc(O)c2cc1-c1cccs1`, the inhibition [2] was “inactive”, the inhibition [3] was “inactive” and the Ki (Mushroom tyrosinase [4]) was 0.24 µM. The Ratio IC50 [5] was 120, the Activity (B16-F10 [6]) was “Toxic” and the Activity (B16-F10 [7]) was “Non-Toxic”. The IC50 (Mushroom tyrosinase [1]) was 0.15 µM.
For `O=c1oc2cc(O)cc(O)c2cc1-c1cc(Br)cs1`, the Activity [8] was 27.7%, the Activity [9] was 94.3% and the inhibition [10] was “Dose-dependent effect”. The Kis [11] was 0.128 µM, the inhibition [12] was “Active” and the Ratio IC50 [5] was 50. The Activity [13] was 78.5%, the Activity (B16-F10 [6]) was “Toxic” and the inhibition [14] was “Dose-dependent effect”. For the same molecule, the Activity (B16-F10 [7]) was “Non-Toxic” and the IC50 (Mushroom tyrosinase [1]) was 0.38 µM.
`O=c1oc2c(O)c(O)ccc2cc1-c1cc(Br)cs1` showed an IC50 (Mushroom tyrosinase [1]) of 259.03 µM.
With `O=c1oc2cc(O)cc(O)c2cc1-c1ccc(Br)cc1` the inhibition [15] was 18.1%, the inhibition [10] was “Dose-dependent effect” and the inhibition [12] was “Active”. For the same molecule, the inhibition [16] was 51.8%, the inhibition [14] was “Dose-dependent effect” and the inhibition [17] was “Active”. The IC50 (Mushroom tyrosinase [1]) was 1.05 µM.
For `O=c1oc2cc(O)ccc2cc1-c1cc(Br)cs1`, the IC50 (Mushroom tyrosinase [1]) was 31.8 µM.
With `O=c1oc2c(O)cccc2cc1-c1cc(Br)cs1` the IC50 (Mushroom tyrosinase [1]) was greater than 1000 µM.
In the case of `COc1ccc2oc(=O)c(-c3cccs3)cc2c1`, the IC50 (Mushroom tyrosinase [1]) is reported as greater than 1000 µM.
With `O=c1oc2cc(O)cc(O)c2cc1-c1ccsc1` the inhibition [2] was “inactive”, the inhibition [3] was “inactive” and the IC50 (Mushroom tyrosinase [1]) was 0.19 µM.
In the case of `O=c1oc2ccc(O)cc2cc1-c1cccs1`, the IC50 (Mushroom tyrosinase [1]) is reported as greater than 1000 µM.
With `COc1ccc2oc(=O)c(-c3cc(Br)cs3)cc2c1` the IC50 (Mushroom tyrosinase [1]) was greater than 1000 µM.
`O=c1oc2cc(O)cc(O)c2cc1-c1ccccc1` gave an IC50 (Mushroom tyrosinase [1]) of 408.37 µM.
